# Columns and labels:
# Assay in all cases: KINOMEscan competition binding
# Details in all cases: compound 10.0 µM
# ACVR2A (human) = ACVR2A (human) (UniProt P27037)
# ACVRL1 (human) = ACVRL1 (human) (UniProt P37023)
# AKT1 (human) = AKT1 (human) (UniProt P31749)
# BRSK2 (human) = BRSK2 (human) (UniProt Q8IWQ3)
# CDC42BPG (human) = CDC42BPG (human) (UniProt Q6DT37)
# CSK (human) = CSK (human) (UniProt P41240)
# ERBB4 (human) = ERBB4 (human) (UniProt Q15303)
# FGR (human) = FGR (human) (UniProt P09769)
# IGF1R (human) = IGF1R (human) (UniProt P08069)
# IKBKE (human) = IKBKE (human) (UniProt Q14164)
# INSR (human) = INSR (human) (UniProt P06213)
# [1] = target: JAK1 JH2 pseudokinase (human) (UniProt P23458)
# [2] = target: JAK2 JH1 catalytic (human) (UniProt O60674)
# [3] = target: JAK3 JH1 catalytic (human) (UniProt P52333)
# MAP2K4 (human) = MAP2K4 (human) (UniProt P45985)
# MAPK15 (human) = MAPK15 (human) (UniProt Q8TD08)
# MAPK6 (human) = MAPK6 (human) (UniProt Q16659)
# MELK (human) = MELK (human) (UniProt Q14680)
# MST4 (human) = MST4 (human) (UniProt Q9P289)
# NEK6 (human) = NEK6 (human) (UniProt Q9HC98)
# NEK7 (human) = NEK7 (human) (UniProt Q8TDX7)
# NTRK1 (human) = NTRK1 (human) (UniProt P04629)
# NUAK1 (human) = NUAK1 (human) (UniProt O60285)
# PAK7 (human) = PAK7 (human) (UniProt Q9P286)
# PDGFRA (human) = PDGFRA (human) (UniProt P16234)
# PHKG1 (human) = PHKG1 (human) (UniProt Q16816)
# PIK3C2B (human) = PIK3C2B (human) (UniProt O00750)
# PIK3CB (human) = PIK3CB (human) (UniProt P42338)
# PRKCD (human) = PRKCD (human) (UniProt Q05655)
# PRKCQ (human) = PRKCQ (human) (UniProt Q04759)
# PRKG2 (human) = PRKG2 (human) (UniProt Q13237)
# RAF1 (human) = RAF1 (human) (UniProt P04049)
# RIPK2 (human) = RIPK2 (human) (UniProt O43353)
# STK3 (human) = STK3 (human) (UniProt Q13188)
# STK36 (human) = STK36 (human) (UniProt Q9NRP7)
# TEK (human) = TEK (human) (UniProt Q02763)
# TLK1 (human) = TLK1 (human) (UniProt Q9UKI8)
# TNIK (human) = TNIK (human) (UniProt Q9UKE5)
# WEE1 (human) = WEE1 (human) (UniProt P30291)
# ZAP70 (human) = ZAP70 (human) (UniProt P43403)
# Sequence of NUAK1 (human) (O60285 whole entry, looked up): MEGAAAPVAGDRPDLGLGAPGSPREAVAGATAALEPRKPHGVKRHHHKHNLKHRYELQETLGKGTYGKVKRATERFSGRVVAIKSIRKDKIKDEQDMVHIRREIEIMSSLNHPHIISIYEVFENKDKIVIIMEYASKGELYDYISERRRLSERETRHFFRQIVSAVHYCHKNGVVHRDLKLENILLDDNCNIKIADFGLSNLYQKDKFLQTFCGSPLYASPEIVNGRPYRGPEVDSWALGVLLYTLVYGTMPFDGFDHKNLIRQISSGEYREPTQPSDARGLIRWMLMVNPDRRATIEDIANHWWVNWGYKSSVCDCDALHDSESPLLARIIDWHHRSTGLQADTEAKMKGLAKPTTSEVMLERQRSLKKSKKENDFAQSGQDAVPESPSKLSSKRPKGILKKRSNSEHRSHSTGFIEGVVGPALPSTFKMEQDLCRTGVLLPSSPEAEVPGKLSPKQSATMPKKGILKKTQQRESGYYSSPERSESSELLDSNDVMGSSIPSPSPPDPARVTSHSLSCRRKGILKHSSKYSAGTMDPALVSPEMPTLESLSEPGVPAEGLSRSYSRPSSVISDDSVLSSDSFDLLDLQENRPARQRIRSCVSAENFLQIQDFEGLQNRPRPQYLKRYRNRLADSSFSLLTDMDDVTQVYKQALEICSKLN
# Sequence of STK36 (human) (Q9NRP7 whole entry, looked up): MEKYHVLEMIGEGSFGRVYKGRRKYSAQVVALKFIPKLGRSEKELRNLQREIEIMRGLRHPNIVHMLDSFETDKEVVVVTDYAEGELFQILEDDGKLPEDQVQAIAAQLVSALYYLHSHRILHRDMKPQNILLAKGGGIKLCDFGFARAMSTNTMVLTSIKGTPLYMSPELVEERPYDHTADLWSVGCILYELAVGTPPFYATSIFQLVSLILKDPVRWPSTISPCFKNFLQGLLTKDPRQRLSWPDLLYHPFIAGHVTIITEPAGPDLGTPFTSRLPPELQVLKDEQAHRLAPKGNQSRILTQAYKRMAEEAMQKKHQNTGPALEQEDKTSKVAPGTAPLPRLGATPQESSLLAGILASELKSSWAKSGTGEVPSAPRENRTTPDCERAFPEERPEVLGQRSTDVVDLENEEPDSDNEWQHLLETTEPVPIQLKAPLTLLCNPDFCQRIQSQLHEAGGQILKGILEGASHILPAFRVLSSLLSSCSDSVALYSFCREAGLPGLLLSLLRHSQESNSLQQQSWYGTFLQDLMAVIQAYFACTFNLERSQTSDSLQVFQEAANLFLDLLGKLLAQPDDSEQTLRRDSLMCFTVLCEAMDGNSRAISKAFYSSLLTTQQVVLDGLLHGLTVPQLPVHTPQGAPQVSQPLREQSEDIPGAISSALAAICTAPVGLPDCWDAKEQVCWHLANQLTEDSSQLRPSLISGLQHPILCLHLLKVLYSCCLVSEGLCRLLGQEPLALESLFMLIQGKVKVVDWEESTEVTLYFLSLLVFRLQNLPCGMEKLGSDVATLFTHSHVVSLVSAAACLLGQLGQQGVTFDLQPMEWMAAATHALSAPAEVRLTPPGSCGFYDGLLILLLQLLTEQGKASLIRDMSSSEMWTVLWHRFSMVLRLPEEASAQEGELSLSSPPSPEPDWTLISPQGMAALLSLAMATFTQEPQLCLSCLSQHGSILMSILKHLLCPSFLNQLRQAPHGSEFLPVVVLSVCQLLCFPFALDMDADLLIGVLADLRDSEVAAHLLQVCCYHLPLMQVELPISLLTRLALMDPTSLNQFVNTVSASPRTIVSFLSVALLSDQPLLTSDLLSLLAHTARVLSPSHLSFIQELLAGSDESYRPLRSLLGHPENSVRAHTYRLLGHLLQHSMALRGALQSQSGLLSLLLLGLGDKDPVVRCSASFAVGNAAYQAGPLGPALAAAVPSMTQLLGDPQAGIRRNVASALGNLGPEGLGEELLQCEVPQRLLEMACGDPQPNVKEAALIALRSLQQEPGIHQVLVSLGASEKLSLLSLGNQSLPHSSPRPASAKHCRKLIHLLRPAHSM
# Sequence of MAP2K4 (human) (P45985 whole entry, looked up): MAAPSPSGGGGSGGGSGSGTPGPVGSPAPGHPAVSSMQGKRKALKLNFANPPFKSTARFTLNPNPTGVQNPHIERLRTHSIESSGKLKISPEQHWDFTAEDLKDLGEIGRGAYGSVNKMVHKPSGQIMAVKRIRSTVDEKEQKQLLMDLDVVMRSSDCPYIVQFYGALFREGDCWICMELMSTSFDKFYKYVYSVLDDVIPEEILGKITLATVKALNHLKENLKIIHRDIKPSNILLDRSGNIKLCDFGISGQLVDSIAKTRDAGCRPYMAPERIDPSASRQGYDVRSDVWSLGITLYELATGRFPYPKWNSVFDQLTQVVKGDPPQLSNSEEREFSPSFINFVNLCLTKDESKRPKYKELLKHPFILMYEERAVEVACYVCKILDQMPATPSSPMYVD
# Sequence of STK3 (human) (Q13188 whole entry, looked up): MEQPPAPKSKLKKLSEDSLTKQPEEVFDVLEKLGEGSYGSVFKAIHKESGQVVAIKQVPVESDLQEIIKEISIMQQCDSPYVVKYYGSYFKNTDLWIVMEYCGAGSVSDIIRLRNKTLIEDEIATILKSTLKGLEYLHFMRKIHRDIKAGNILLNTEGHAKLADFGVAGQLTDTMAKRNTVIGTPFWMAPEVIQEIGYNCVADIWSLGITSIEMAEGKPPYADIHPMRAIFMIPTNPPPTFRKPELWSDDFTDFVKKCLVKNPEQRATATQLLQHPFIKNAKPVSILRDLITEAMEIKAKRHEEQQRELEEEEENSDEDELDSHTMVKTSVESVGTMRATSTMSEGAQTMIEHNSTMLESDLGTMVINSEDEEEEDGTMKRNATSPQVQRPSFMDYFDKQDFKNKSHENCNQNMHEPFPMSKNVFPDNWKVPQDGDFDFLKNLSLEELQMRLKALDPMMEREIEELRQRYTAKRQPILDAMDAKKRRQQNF
# Sequence of AKT1 (human) (P31749 whole entry, looked up): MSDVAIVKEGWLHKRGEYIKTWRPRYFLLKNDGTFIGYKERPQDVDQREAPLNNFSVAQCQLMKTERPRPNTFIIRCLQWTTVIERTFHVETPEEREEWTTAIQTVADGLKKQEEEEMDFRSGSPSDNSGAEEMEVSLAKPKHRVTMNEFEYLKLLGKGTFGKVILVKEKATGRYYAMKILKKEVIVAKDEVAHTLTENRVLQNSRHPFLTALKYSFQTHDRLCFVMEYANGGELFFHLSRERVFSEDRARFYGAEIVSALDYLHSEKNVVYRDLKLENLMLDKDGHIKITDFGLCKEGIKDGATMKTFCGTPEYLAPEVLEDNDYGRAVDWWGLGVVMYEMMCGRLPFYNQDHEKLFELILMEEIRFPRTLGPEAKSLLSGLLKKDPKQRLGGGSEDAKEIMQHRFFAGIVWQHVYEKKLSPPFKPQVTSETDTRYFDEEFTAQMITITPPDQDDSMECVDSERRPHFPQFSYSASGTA
# Sequence of TEK (human) (Q02763 whole entry, looked up): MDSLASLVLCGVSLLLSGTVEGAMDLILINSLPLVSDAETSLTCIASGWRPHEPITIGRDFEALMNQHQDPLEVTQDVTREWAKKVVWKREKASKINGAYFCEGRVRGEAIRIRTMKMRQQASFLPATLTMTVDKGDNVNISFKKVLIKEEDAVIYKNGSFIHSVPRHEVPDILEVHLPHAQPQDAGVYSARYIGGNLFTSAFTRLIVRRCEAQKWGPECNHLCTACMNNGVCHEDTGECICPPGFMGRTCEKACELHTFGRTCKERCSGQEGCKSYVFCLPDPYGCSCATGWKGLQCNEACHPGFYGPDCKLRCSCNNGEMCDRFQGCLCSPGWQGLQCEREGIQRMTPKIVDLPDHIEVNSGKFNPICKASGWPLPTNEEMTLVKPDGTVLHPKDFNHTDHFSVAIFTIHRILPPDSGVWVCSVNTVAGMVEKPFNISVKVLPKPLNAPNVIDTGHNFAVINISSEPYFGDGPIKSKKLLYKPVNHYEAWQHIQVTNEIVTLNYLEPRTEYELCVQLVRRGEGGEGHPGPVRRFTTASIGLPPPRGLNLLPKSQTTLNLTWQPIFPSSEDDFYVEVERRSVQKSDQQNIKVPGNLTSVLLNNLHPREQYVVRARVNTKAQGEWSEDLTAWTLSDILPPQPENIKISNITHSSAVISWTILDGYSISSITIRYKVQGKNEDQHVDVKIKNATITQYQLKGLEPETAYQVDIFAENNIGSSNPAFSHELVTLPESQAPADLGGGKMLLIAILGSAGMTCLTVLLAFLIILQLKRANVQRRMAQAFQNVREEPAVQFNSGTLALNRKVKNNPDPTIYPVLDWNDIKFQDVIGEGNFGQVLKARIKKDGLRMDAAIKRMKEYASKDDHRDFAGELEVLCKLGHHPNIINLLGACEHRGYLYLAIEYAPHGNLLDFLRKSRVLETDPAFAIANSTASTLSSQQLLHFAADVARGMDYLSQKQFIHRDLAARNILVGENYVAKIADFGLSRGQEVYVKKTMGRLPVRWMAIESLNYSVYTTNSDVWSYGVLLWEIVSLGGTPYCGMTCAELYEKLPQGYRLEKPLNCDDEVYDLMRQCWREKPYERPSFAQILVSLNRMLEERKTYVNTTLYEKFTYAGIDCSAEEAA
# Sequence of NEK7 (human) (Q8TDX7 whole entry, looked up): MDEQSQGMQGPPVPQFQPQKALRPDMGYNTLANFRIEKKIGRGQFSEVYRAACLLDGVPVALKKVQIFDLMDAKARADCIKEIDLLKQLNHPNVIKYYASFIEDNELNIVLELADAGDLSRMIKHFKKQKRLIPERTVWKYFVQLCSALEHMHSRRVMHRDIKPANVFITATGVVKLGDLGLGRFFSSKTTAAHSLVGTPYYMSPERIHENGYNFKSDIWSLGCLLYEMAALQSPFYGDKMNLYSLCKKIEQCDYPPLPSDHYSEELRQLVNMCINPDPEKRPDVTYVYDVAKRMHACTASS
structure (smiles),measurement,setting,value
O=C(NC1CC1)c1cccc(-c2ccc3c(NC(=O)C4CC4)n[nH]c3c2)c1,"kinase still bound, per cent of control",ACVR2A (human),92%
same,"kinase still bound, per cent of control",ACVRL1 (human),100%
same,"kinase still bound, per cent of control",AKT1 (human),100%
same,"kinase still bound, per cent of control",BRSK2 (human),74%
same,"kinase still bound, per cent of control",CDC42BPG (human),62%
same,"kinase still bound, per cent of control",CSK (human),84%
same,"kinase still bound, per cent of control",ERBB4 (human),95%
same,"kinase still bound, per cent of control",FGR (human),100%
same,"kinase still bound, per cent of control",IGF1R (human),100%
same,"kinase still bound, per cent of control",IKBKE (human),100%
same,"kinase still bound, per cent of control",INSR (human),78%
same,"kinase still bound, per cent of control",[1],84%
same,"kinase still bound, per cent of control",[2],18%
same,"kinase still bound, per cent of control",[3],27%
same,"kinase still bound, per cent of control",MAP2K4 (human),66%
same,"kinase still bound, per cent of control",MAPK15 (human),2.9%
same,"kinase still bound, per cent of control",MAPK6 (human),78%
same,"kinase still bound, per cent of control",MELK (human),64%
same,"kinase still bound, per cent of control",MST4 (human),94%
same,"kinase still bound, per cent of control",NEK6 (human),90%
same,"kinase still bound, per cent of control",NEK7 (human),100%
same,"kinase still bound, per cent of control",NTRK1 (human),60%
same,"kinase still bound, per cent of control",NUAK1 (human),100%
same,"kinase still bound, per cent of control",PAK7 (human),67%
same,"kinase still bound, per cent of control",PDGFRA (human),29%
same,"kinase still bound, per cent of control",PHKG1 (human),76%
same,"kinase still bound, per cent of control",PIK3C2B (human),83%
same,"kinase still bound, per cent of control",PIK3CB (human),100%
same,"kinase still bound, per cent of control",PRKCD (human),100%
same,"kinase still bound, per cent of control",PRKCQ (human),100%
same,"kinase still bound, per cent of control",PRKG2 (human),72%
same,"kinase still bound, per cent of control",RAF1 (human),78%
same,"kinase still bound, per cent of control",RIPK2 (human),72%
same,"kinase still bound, per cent of control",STK3 (human),100%
same,"kinase still bound, per cent of control",STK36 (human),88%
same,"kinase still bound, per cent of control",TEK (human),54%
same,"kinase still bound, per cent of control",TLK1 (human),51%
same,"kinase still bound, per cent of control",TNIK (human),25%
same,"kinase still bound, per cent of control",WEE1 (human),84%
same,"kinase still bound, per cent of control",ZAP70 (human),90%
Cc1ccc(C(=O)Nc2cccc(C(F)(F)F)c2)cc1Nc1cncc(C(N)=O)c1,"kinase still bound, per cent of control",ACVR2A (human),100%
same,"kinase still bound, per cent of control",ACVRL1 (human),100%
same,"kinase still bound, per cent of control",AKT1 (human),100%
same,"kinase still bound, per cent of control",BRSK2 (human),100%
same,"kinase still bound, per cent of control",CDC42BPG (human),100%
same,"kinase still bound, per cent of control",CSK (human),100%
same,"kinase still bound, per cent of control",ERBB4 (human),100%
same,"kinase still bound, per cent of control",FGR (human),100%
same,"kinase still bound, per cent of control",IGF1R (human),100%
same,"kinase still bound, per cent of control",IKBKE (human),100%
same,"kinase still bound, per cent of control",INSR (human),100%
same,"kinase still bound, per cent of control",[1],100%
same,"kinase still bound, per cent of control",[2],100%
same,"kinase still bound, per cent of control",[3],100%
same,"kinase still bound, per cent of control",MAP2K4 (human),100%
same,"kinase still bound, per cent of control",MAPK15 (human),100%
same,"kinase still bound, per cent of control",MAPK6 (human),100%
same,"kinase still bound, per cent of control",MELK (human),100%
same,"kinase still bound, per cent of control",MST4 (human),100%
same,"kinase still bound, per cent of control",NEK6 (human),100%
same,"kinase still bound, per cent of control",NEK7 (human),100%
same,"kinase still bound, per cent of control",NTRK1 (human),100%
same,"kinase still bound, per cent of control",NUAK1 (human),100%
same,"kinase still bound, per cent of control",PAK7 (human),100%
same,"kinase still bound, per cent of control",PDGFRA (human),0.2%
same,"kinase still bound, per cent of control",PHKG1 (human),100%
same,"kinase still bound, per cent of control",PIK3C2B (human),100%
same,"kinase still bound, per cent of control",PIK3CB (human),100%
same,"kinase still bound, per cent of control",PRKCD (human),100%
same,"kinase still bound, per cent of control",PRKCQ (human),100%
same,"kinase still bound, per cent of control",PRKG2 (human),100%
same,"kinase still bound, per cent of control",RAF1 (human),4.5%
same,"kinase still bound, per cent of control",RIPK2 (human),100%
same,"kinase still bound, per cent of control",STK3 (human),100%
same,"kinase still bound, per cent of control",STK36 (human),100%
same,"kinase still bound, per cent of control",TEK (human),100%
same,"kinase still bound, per cent of control",TLK1 (human),100%
same,"kinase still bound, per cent of control",TNIK (human),100%
same,"kinase still bound, per cent of control",WEE1 (human),100%
same,"kinase still bound, per cent of control",ZAP70 (human),100%

# Source: the kinase profiling compilation of Christmann-Franck et al. (2016)
